# Experimental data taken from patent US20170051149A1, “AZOARYLS AS REVERSIBLY MODULATABLE TUBULIN INHIBITORS” (ECOLE NORMALE SUPERIEURE DE LYON, priority 2014, published 2017).
# Where two headings read alike, the source gives them in different places.
# Key:
# [1] = fluorescence spectrophotometry (excitation and emission spectra); assay type: physicochemical
# Procedure: Absorption spectra in cuvette (“UV-Vis”) were acquired on a Varian CaryScan 50 (1 cm, 100 μL or 1 mL volume) with Peltier cell temperature control unit maintained at 37° C., in PBS at pH˜7.4 containing a low percentage of cosolvent if needed (typically 2% MeCN or 5% DMSO). A ThorLabs Polychrome V monochromator with a fibre optic cable output directed into the cuvette was used to perform photoisomerisation studies by UV-Vis spectrophotometry although single LEDs of approximately 10-20 mW output, 15-20° cone angle, and 10-15 nm bandwidth FWHM, obtained commercially from Roithner Lasertechnik GmbH, were equally successful in providing repeatable monochromatic photoisomerisation. Separated spectra of trans and […] forms were acquired from the inline Diode Array Detector on the AGILENT 1260 SL coupled LC-MS system after HPLC separation. Fluorescence spectrophotometry (excitation and emission spectra) were acquired on a Varian CaryEclipse fluorescence spectrophotometer.
# Fluorescence imaging is commonly used to sensitively, conveniently and non-invasively determine the local concentration of fluorescent species in biological and medical settings. Considering I.25 as an example of a compound of the invention bearing a fluorescent reporter, it was considered desirable that its rhodamine moiety would allow fluorescence detection of I.25.
# MDA-MB-231 cells = experiment: nuclear fragmentation (subG1, Nicoletti), induction of apoptosis; assay type: cell-based; conditions: for EC50: Homo sapiens, MDA-MB-231, 48 h, read-out: EC50, 50% increase of the subG1 population percentage
# Procedure: (§1) Different cell types, including MDA-MB-231, Jurkat, HeLa and HepG2 cells, were treated with indicated concentrations of compound I.1 and exposed to a 390 nm toxic regime, a rescue regime with both 390 nm and 515 nm light, or kept in the dark. Following the treatment, cells were stained with PI and the percentage of cells containing a hypodiploid amount of DNA (subG1 phase of cell cycle), was determined. Briefly, prior to analysis, cells were harvested on ice and incubated in a hypotonic buffer [0.1% sodium citrate, 0.1% Triton X-100 and 50 μg/mL propidium iodide (PI)] for 30 min at 4° C. Following the PI staining cells were analysed by flow cytometry using FACSCalibur flow cytometer (Becton Dickinson, Heidelberg, Germany) and Cell Quest Pro Software (Becton Dickinson).
# HepG2 cells = experiment: as above; assay type: cell-based; conditions: 48 h
# Procedure: as §1
# HeLa cells = experiment: as above; assay type: cell-based; conditions: 30 h
# Procedure: as §1
# Jurkat cells = experiment: as above; assay type: cell-based; conditions: 48 h
# Procedure: as §1
smiles,measurement,setting,value
"CCN(CC)c1ccc2c(-c3ccccc3C(=O)N3CCN(CCCOc4c(N=Nc5cc(OC)c(OC)c(OC)c5)ccc(OC)c4C)CC3)c3ccc(=[N+](CC)CC)cc-3oc2c1.CCN(CC)c1ccc2c(-c3ccccc3C(=O)N3CCN(CCCOc4c(N=Nc5cc(OC)c(OC)c(OC)c5)ccc(OC)c4C)CC3)c3ccc(=[N+](CC)CC)cc-3oc2c1.O=C[O-].O=C[O-] [I.25, N-(6-(diethylamino)-9-(2-(4-(3-(3-methoxy-2-methyl-6-((3,4,5-trimethoxyphenyl)diazenyl)phenoxy)propyl)piperazine-1-carbonyl)phenyl)-3H-xanthen-3-ylidene)-N-ethylethanaminium bis(formate) salt]",excitation wavelength giving maximum emission intensity,[1]; emission at 590 nm,570 nm
same,fluorescence emission maximum,"[1]; excited at 380 nm or 554 nm, 10 μM, 60:32:8 EtOH:PBS:MeCN, 25° C.",590 nm
"COc1ccc(N=Nc2cc(OC)c(OC)c(OC)c2)cc1O [I.1, 2-methoxy-5-((3,4,5-trimethoxyphenyl)diazenyl)phenol]",mean % subG1 phase,"MDA-MB-231 cells; 10 nM, 390 nm (350 ms every 5 min), 48 h",3.6%
same,mean % subG1 phase,"MDA-MB-231 cells; 10 nM, Dark, 48 h",6.7%
same,mean % subG1 phase,"MDA-MB-231 cells; 10 nM, MDA-MB-231, 390 nm only (150 ms pulse every 30 s), 48 h",0.3%
same,mean % subG1 phase,"MDA-MB-231 cells; 10 nM, MDA-MB-231, rescue protocol 390 nm + 515 nm (500 ms), 48 h",0.3%
same,mean % subG1 phase,"MDA-MB-231 cells; 100 nM, 390 nm (350 ms every 5 min), 48 h",3.9%
same,mean % subG1 phase,"MDA-MB-231 cells; 100 nM, MDA-MB-231, 390 nm only (150 ms pulse every 30 s), 48 h",0.3%
same,mean % subG1 phase,"MDA-MB-231 cells; 100 nM, MDA-MB-231, dark, 48 hours",2.1%
same,mean % subG1 phase,"MDA-MB-231 cells; 100 nM, MDA-MB-231, rescue protocol 390 nm + 515 nm (500 ms), 48 h",0.4%
same,mean % subG1 phase,"MDA-MB-231 cells; 100 nM, dark, 48 h",6.0%
same,mean % subG1 phase,"MDA-MB-231 cells; 400 nM, 390 nm (350 ms every 5 min), 48 h",4.2%
same,mean % subG1 phase,"MDA-MB-231 cells; 400 nM, MDA-MB-231, 390 nm only (150 ms pulse every 30 s), 48 h",14.0%
same,mean % subG1 phase,"MDA-MB-231 cells; 400 nM, MDA-MB-231, rescue protocol 390 nm + 515 nm (500 ms), 48 h",1.7%
same,mean % subG1 phase,"MDA-MB-231 cells; 400 nM, dark, 48 h",3.3%
same,mean % subG1 phase,"MDA-MB-231 cells; 600 nM, 390 nm (350 ms every 5 min), 48 h",16.8%
same,mean % subG1 phase,"MDA-MB-231 cells; 600 nM, MDA-MB-231, 390 nm only (150 ms pulse every 30 s), 48 h",22.9%
same,mean % subG1 phase,"MDA-MB-231 cells; 600 nM, MDA-MB-231, rescue protocol 390 nm + 515 nm (500 ms), 48 h",5.4%
same,mean % subG1 phase,"MDA-MB-231 cells; 600 nM, dark, 48 h",3.9%
same,mean % subG1 phase,"MDA-MB-231 cells; 800 nM, 390 nm (350 ms every 5 min), 48 h",32.1%
same,mean % subG1 phase,"MDA-MB-231 cells; 800 nM, Dark, 48 h",3.0%
same,mean % subG1 phase,"MDA-MB-231 cells; 800 nM, MDA-MB-231, 390 nm only (150 ms pulse every 30 s), 48 h",19.4%
same,mean % subG1 phase,"MDA-MB-231 cells; 800 nM, MDA-MB-231, rescue protocol 390 nm + 515 nm (500 ms), 48 h",11.7%
same,mean % subG1 phase,"MDA-MB-231 cells; 1 μM, 390 nm (350 ms every 5 min), 48 h",55.7%
same,mean % subG1 phase,"MDA-MB-231 cells; 1 μM, MDA-MB-231, 390 nm only (150 ms pulse every 30 s), 48 h",22.5%
same,mean % subG1 phase,"MDA-MB-231 cells; 1 μM, MDA-MB-231, dark, 48 hours",2.0%
same,mean % subG1 phase,"MDA-MB-231 cells; 1 μM, MDA-MB-231, rescue protocol 390 nm + 515 nm (500 ms), 48 h",15.3%
same,mean % subG1 phase,"MDA-MB-231 cells; 1 μM, dark, 48 h",3.1%
same,mean % subG1 phase,"MDA-MB-231 cells; 1.2 μM, 390 nm (350 ms every 5 min), 48 h",56.6%
same,mean % subG1 phase,"MDA-MB-231 cells; 1.2 μM, DARK, 48 h",3.6%
same,mean % subG1 phase,"MDA-MB-231 cells; 1.5 μM, 390 nm (350 ms every 5 min), 48 h",76.1%
same,mean % subG1 phase,"MDA-MB-231 cells; 1.5 μM, DARK, 48 h",3.3%
same,mean % subG1 phase,"MDA-MB-231 cells; 2 μM, MDA-MB-231, 390 nm only (150 ms pulse every 30 s), 48 h",35.4%
same,mean % subG1 phase,"MDA-MB-231 cells; 2 μM, MDA-MB-231, rescue protocol 390 nm + 515 nm (500 ms), 48 h",25.0%
same,mean % subG1 phase,"MDA-MB-231 cells; 3 μM, 390 nm (350 ms every 5 min), 48 h",79.0%
same,mean % subG1 phase,"MDA-MB-231 cells; 3 μM, dark, 48 h",6.0%
same,mean % subG1 phase,"MDA-MB-231 cells; 6 μM, 390 nm (350 ms every 5 min), 48 h",83.5%
same,mean % subG1 phase,"MDA-MB-231 cells; 6 μM, DARK, 48 h",3.9%
same,mean % subG1 phase,"MDA-MB-231 cells; 10 μM, MDA-MB-231, dark, 48 hours",2.0%
same,mean % subG1 phase,"MDA-MB-231 cells; 15 μM, 390 nm (350 ms every 5 min), 48 h",83.7%
same,mean % subG1 phase,"MDA-MB-231 cells; 15 μM, DARK, 48 h",5.4%
same,mean % subG1 phase,"MDA-MB-231 cells; 50 μM, MDA-MB-231, dark, 48 hours",4.5%
same,mean % subG1 phase,"MDA-MB-231 cells; 75 μM, MDA-MB-231, dark, 48 hours",7.9%
same,mean % subG1 phase,"MDA-MB-231 cells; 85 μM, MDA-MB-231, dark, 48 hours",12.7%
same,mean % subG1 phase,"MDA-MB-231 cells; 100 μM, MDA-MB-231, dark, 48 hours",26.8%
same,mean % subG1 phase,"MDA-MB-231 cells; 125 μM, MDA-MB-231, dark, 48 hours",51.1%
same,mean % subG1 phase,"MDA-MB-231 cells; 150 μM, MDA-MB-231, dark, 48 hours",92.2%
same,mean % subG1 phase,"MDA-MB-231 cells; 175 μM, MDA-MB-231, dark, 48 hours",95.7%
same,mean % subG1 phase,"MDA-MB-231 cells; 200 μM, MDA-MB-231, dark, 48 hours",95.5%
same,EC50,"MDA-MB-231 cells; 390 nm regimen, 48 h",~1 µM
same,EC50,"MDA-MB-231 cells; in the dark, 48 h",~120 µM
same,mean % subG1 phase,"HepG2 cells; 100 nM, HepG2, 390 nm light (250 ms pulses every 15 s)",5.4%
same,mean % subG1 phase,"HepG2 cells; 100 nM, HepG2, dark",2.5%
same,mean % subG1 phase,"HepG2 cells; 600 nM, HepG2, 390 nm light (250 ms pulses every 15 s)",5.2%
same,mean % subG1 phase,"HepG2 cells; 600 nM, HepG2, dark",3.1%
same,mean % subG1 phase,"HepG2 cells; 1 μM, HepG2, 390 nm light (250 ms pulses every 15 s)",4.6%
same,mean % subG1 phase,"HepG2 cells; 1 μM, HepG2, dark",2.3%
same,mean % subG1 phase,"HepG2 cells; 3 μM, HepG2, 390 nm light (250 ms pulses every 15 s)",6.5%
same,mean % subG1 phase,"HepG2 cells; 3 μM, HepG2, dark",1.9%
same,mean % subG1 phase,"HepG2 cells; 10 μM, HepG2, 390 nm light (250 ms pulses every 15 s)",14%
same,mean % subG1 phase,"HepG2 cells; 10 μM, HepG2, dark",2.8%
same,mean % subG1 phase,"HeLa cells; 200 nM, 390 nm light (1 s pulses every 15 min)",2.4%
same,mean % subG1 phase,"HeLa cells; 200 nM, dark",1.8%
same,mean % subG1 phase,"HeLa cells; 600 nM, 390 nm light (1 s pulses every 15 min)",6.2%
same,mean % subG1 phase,"HeLa cells; 600 nM, dark",2.3%
same,mean % subG1 phase,"HeLa cells; 1.5 μM, 390 nm light (1 s pulses every 15 min)",16.1%
same,mean % subG1 phase,"HeLa cells; 1.5 μM, dark",2.9%
same,mean % subG1 phase,"HeLa cells; 5 μM, 390 nm light (1 s pulses every 15 min)",12.8%
same,mean % subG1 phase,"HeLa cells; 5 μM, dark",3.2%
same,mean % subG1 phase,"Jurkat cells; 5 nM, 390 nm (350 ms pulses every 5 min)",2.7%
same,mean % subG1 phase,"Jurkat cells; 5 nM, dark",3.0%
same,mean % subG1 phase,"Jurkat cells; 50 nM, 390 nm (350 ms pulses every 5 min)",4.9%
same,mean % subG1 phase,"Jurkat cells; 50 nM, dark",3.4%
same,mean % subG1 phase,"Jurkat cells; 100 nM, 390 nm (350 ms pulses every 5 min)",9.1%
same,mean % subG1 phase,"Jurkat cells; 100 nM, dark",3.5%
same,mean % subG1 phase,"Jurkat cells; 150 nM, 390 nm (350 ms pulses every 5 min)",18.5%
same,mean % subG1 phase,"Jurkat cells; 150 nM, dark",3.3%
same,mean % subG1 phase,"Jurkat cells; 200 nM, 390 nm (350 ms pulses every 5 min)",49.7%
same,mean % subG1 phase,"Jurkat cells; 200 nM, dark",3.0%
same,mean % subG1 phase,"Jurkat cells; 400 nM, 390 nm (350 ms pulses every 5 min)",88.5%
same,mean % subG1 phase,"Jurkat cells; 400 nM, dark",4.4%
same,mean % subG1 phase,"Jurkat cells; 800 nM, 390 nm (350 ms pulses every 5 min)",89.5%
same,mean % subG1 phase,"Jurkat cells; 800 nM, dark",5.5%
same,mean % subG1 phase,"Jurkat cells; 1.5 μM, 390 nm (350 ms pulses every 5 min)",89.6%
same,mean % subG1 phase,"Jurkat cells; 1.5 μM, dark",7.9%
same,mean % subG1 phase,"Jurkat cells; 5 μM, 390 nm (350 ms pulses every 5 min)",91.0%
same,mean % subG1 phase,"Jurkat cells; 5 μM, dark",12.0%
